Reference: ChEMBL document CHEMBL5375979, “Chemical, Biochemical, Cellular, and Physiological Characterization of Leucettinib-21, a Down Syndrome and Alzheimer's Disease Drug Candidate” (J Med Chem, 2023)

Key:
[1] = molecular target: AP2-associated protein kinase 1 (Homo sapiens, UniProt Q2M2I8)
Description: Inhibition of human AAK1 assessed as remaining activity by eurofins-cerep kinase profiler analysis

[2] = molecular target: Serine/threonine-protein kinase haspin (Homo sapiens, UniProt Q8TF76)
Description: Inhibition of human HASPIN assessed as remaining activity by eurofins-cerep kinase profiler analysis

Myotonin-protein kinase = Myotonin-protein kinase (Homo sapiens, UniProt Q09013)
Description: Inhibition of human DMPK assessed as remaining activity by eurofins-cerep kinase profiler analysis

[3] = molecular target: T1, Dual specificity protein kinase CLK1 (Homo sapiens, UniProt P49759)
T1 sequence (P49759 whole entry): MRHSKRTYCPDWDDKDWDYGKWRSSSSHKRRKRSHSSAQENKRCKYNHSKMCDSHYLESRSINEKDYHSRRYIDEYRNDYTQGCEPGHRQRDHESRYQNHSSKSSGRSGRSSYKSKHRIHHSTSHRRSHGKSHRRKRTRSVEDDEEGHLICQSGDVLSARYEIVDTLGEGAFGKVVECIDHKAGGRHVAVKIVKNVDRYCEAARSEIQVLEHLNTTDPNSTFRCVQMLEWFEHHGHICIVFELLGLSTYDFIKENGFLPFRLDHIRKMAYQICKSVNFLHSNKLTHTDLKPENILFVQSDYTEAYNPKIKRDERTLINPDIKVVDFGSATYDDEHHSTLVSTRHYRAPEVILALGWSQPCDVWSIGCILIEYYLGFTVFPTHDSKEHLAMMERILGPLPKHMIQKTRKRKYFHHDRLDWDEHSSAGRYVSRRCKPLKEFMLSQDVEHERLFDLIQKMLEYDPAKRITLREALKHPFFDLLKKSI

[4] = molecular target: T2, Dual specificity protein kinase CLK4 (Homo sapiens, UniProt Q9HAZ1)
T2 sequence (Q9HAZ1 whole entry): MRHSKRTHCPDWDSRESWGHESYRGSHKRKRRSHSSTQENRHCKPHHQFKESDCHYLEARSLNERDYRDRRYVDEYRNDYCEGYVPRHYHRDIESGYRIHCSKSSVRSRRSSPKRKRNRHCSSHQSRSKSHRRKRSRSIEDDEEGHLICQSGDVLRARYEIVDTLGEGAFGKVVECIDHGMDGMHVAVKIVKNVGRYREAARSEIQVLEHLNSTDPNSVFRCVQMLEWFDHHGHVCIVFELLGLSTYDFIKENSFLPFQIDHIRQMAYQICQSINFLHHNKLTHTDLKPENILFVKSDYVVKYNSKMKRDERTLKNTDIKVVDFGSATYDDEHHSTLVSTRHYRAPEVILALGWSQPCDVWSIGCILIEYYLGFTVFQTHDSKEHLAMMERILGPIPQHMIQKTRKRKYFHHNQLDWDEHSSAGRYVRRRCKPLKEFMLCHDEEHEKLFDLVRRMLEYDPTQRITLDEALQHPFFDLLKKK

[5] = molecular target: T1, Dual specificity protein kinase CLK1; remark: listed apart in the source
[6] = molecular target: Transcription initiation factor TFIID subunit 1-like (Homo sapiens, UniProt Q8IZX4)
Description: Inhibition of human TAF1L assessed as remaining activity by eurofins-cerep kinase profiler analysis

[7] = molecular target: Casein kinase II subunit alpha (Homo sapiens) (UniProt P68400); conditions: dose 10.0 µM
Tribbles homolog 2 = Tribbles homolog 2 (Homo sapiens, UniProt Q92519)
Tribbles homolog 2, sequence (Q92519 whole entry): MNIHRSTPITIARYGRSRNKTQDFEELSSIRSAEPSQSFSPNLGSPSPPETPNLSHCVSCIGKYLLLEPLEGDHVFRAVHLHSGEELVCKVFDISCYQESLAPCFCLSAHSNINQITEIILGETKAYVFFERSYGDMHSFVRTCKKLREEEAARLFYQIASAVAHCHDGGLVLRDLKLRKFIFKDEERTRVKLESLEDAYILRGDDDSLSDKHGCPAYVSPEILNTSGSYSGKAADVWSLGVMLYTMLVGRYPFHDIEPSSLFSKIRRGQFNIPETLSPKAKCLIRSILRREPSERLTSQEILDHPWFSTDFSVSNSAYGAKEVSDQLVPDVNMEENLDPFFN
Description: Inhibition of human TRB2 assessed as remaining activity by eurofins-cerep kinase profiler analysis

[8] = molecular target: T3, Dual specificity protein kinase CLK3 (Homo sapiens, UniProt P49761); conditions: dose 10.0 µM
[9] = molecular target: Serine/threonine-protein kinase TAO3 (Homo sapiens, UniProt Q9H2K8)
Serine/threonine-protein kinase TAO3, sequence (Q9H2K8 whole entry): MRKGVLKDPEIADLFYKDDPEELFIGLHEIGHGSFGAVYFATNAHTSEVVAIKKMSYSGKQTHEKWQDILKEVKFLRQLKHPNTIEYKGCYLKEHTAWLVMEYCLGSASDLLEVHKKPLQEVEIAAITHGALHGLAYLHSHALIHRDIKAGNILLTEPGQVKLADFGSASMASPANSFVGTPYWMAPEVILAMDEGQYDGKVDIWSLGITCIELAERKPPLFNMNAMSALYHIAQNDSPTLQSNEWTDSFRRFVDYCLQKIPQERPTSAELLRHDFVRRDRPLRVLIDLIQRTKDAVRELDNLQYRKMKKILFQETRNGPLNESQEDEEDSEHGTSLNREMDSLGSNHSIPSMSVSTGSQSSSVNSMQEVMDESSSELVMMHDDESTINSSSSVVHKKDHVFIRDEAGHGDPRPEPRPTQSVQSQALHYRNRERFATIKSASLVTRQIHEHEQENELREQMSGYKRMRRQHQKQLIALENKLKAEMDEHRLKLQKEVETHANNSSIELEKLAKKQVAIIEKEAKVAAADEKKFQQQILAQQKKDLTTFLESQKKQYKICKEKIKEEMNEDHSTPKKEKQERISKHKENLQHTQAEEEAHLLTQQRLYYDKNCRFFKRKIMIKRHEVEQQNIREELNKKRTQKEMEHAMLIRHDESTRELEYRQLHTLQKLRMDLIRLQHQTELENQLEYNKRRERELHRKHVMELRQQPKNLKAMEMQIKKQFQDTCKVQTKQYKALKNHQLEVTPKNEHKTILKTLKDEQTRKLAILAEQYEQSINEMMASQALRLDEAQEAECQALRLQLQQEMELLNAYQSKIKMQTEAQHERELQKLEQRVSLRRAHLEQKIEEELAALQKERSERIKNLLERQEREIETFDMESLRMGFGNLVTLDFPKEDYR
Description: Inhibition of human TAO3 assessed as remaining activity by eurofins-cerep kinase profiler analysis

[10] = molecular target: Homeodomain-interacting protein kinase 3 (Homo sapiens, UniProt Q9H422)
Description: Inhibition of human HIPK3 assessed as remaining activity by eurofins-cerep kinase profiler analysis

[11] = molecular target: Cyclin-dependent kinase-like 2 (Homo sapiens, UniProt Q92772)
Cyclin-dependent kinase-like 2, sequence (Q92772 whole entry): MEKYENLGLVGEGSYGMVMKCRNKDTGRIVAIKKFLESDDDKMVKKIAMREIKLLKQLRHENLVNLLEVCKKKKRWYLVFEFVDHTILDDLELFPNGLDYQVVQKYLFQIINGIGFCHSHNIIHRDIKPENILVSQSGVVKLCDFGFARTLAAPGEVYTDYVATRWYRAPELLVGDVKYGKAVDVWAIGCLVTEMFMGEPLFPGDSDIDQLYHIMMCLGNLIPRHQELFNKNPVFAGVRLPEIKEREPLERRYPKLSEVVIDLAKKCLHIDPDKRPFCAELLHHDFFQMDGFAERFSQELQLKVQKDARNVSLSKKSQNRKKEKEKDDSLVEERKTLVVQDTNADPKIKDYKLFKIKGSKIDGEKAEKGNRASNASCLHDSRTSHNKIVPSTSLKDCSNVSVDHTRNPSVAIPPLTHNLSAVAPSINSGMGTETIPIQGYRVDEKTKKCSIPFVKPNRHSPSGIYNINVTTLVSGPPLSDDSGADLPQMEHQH
Description: Inhibition of human CDKL2 assessed as remaining activity by eurofins-cerep kinase profiler analysis

[12] = molecular target: Mitogen-activated protein kinase 15 (Homo sapiens) (UniProt Q8TD08); conditions: dose 10.0 µM
[13] = molecular target: Cyclin-dependent kinase-like 4 (Homo sapiens, UniProt Q5MAI5)
Description: Inhibition of human CDKL4 assessed as remaining activity by eurofins-cerep kinase profiler analysis

[14] = molecular target: T3, Dual specificity protein kinase CLK3
Description: Inhibition of human CLK3 assessed as remaining activity by eurofins-cerep kinase profiler analysis

[15] = molecular target: Serine/threonine-protein kinase PLK4 (Homo sapiens) (UniProt O00444); conditions: dose 10.0 µM
[16] = molecular target: T4, Homeodomain-interacting protein kinase 2 (Homo sapiens, UniProt Q9H2X6)
Description: Inhibition of human HIPK2 assessed as remaining activity by eurofins-cerep kinase profiler analysis

[17] = molecular target: Cyclin-dependent kinase-like 5 (Homo sapiens, UniProt O76039)
Description: Inhibition of human CDKL5 assessed as remaining activity by eurofins-cerep kinase profiler analysis

[18] = molecular target: T5, Dual specificity tyrosine-phosphorylation-regulated kinase 3 (Homo sapiens, UniProt O43781)
T5 sequence (O43781 whole entry): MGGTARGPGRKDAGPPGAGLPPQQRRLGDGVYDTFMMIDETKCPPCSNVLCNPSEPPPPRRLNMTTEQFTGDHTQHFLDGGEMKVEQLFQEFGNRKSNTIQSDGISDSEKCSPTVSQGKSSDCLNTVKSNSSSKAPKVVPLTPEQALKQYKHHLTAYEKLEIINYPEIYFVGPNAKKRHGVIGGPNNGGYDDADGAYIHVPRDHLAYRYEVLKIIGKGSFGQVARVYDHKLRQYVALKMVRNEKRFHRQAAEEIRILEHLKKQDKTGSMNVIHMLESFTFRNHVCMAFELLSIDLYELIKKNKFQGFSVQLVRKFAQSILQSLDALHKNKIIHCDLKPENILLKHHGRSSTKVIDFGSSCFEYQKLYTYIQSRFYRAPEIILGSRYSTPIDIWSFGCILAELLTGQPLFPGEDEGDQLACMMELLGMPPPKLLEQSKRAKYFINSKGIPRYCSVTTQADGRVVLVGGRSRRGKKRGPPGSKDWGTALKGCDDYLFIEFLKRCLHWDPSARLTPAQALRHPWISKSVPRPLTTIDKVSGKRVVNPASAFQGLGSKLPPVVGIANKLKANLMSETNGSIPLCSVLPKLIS
Description: Inhibition of human DYRK3 assessed as remaining activity by eurofins-cerep kinase profiler analysis

[19] = molecular target: Serine/threonine-protein kinase TAO2 (Homo sapiens, UniProt Q9UL54)
Description: Inhibition of human TAO2 assessed as remaining activity by eurofins-cerep kinase profiler analysis

[20] = molecular target: Homeodomain-interacting protein kinase 4 (Homo sapiens, UniProt Q8NE63)
Description: Inhibition of human HIPK4 assessed as remaining activity by eurofins-cerep kinase profiler analysis

[21] = molecular target: Aurora kinase A (Homo sapiens) (UniProt O14965); conditions: dose 10.0 µM
Aurora kinase A (Homo sapiens), sequence (O14965 whole entry): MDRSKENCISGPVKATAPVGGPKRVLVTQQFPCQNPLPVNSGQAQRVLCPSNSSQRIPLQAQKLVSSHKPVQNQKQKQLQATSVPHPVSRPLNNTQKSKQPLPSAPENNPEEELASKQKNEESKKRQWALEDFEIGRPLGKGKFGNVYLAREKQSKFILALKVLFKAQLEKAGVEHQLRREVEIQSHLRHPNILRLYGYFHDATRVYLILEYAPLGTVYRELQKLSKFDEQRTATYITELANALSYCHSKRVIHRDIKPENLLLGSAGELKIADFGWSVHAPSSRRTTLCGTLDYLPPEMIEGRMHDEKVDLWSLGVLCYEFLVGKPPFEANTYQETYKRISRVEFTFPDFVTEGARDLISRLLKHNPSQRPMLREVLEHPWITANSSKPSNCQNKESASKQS

[22] = molecular target: T6, Dual specificity tyrosine-phosphorylation-regulated kinase 2 (Homo sapiens, UniProt Q92630)
T6 sequence (Q92630 whole entry): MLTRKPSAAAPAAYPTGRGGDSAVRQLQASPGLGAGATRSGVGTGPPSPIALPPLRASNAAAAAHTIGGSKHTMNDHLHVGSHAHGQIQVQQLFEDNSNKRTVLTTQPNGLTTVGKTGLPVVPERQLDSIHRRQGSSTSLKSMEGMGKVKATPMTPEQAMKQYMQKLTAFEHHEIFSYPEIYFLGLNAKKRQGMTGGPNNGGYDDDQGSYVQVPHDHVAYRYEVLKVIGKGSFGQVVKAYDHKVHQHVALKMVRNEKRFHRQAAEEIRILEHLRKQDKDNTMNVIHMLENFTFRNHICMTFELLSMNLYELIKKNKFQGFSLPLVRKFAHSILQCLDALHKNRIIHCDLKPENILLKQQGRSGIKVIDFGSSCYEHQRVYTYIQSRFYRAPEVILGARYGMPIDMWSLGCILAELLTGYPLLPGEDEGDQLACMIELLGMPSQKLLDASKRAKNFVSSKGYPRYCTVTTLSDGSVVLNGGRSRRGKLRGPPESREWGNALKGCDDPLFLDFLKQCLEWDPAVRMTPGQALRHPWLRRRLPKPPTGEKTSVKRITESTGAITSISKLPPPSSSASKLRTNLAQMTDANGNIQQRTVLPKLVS
Description: Inhibition of human DYRK2 assessed as remaining activity by eurofins-cerep kinase profiler analysis

[23] = molecular target: cGMP-dependent protein kinase 2 (Homo sapiens, UniProt Q13237)
Description: Inhibition of human PRKG2 assessed as remaining activity by eurofins-cerep kinase profiler analysis

[24] = molecular target: T4, Homeodomain-interacting protein kinase 2; conditions: dose 10.0 µM
[25] = molecular target: T2, Dual specificity protein kinase CLK4; remark: listed apart in the source
[26] = molecular target: Myotonin-protein kinase (Homo sapiens) (UniProt Q09013); conditions: dose 10.0 µM
[27] = molecular target: Maternal embryonic leucine zipper kinase (Homo sapiens) (UniProt Q14680); conditions: dose 10.0 µM
[28] = molecular target: Serine/threonine-protein kinase PIM (Homo sapiens) (UniProt P11309+Q9P1W9+Q86V86); conditions: dose 10.0 µM
Serine/threonine-protein kinase PIM (Homo sapiens), sequence (P11309 whole entry, looked up): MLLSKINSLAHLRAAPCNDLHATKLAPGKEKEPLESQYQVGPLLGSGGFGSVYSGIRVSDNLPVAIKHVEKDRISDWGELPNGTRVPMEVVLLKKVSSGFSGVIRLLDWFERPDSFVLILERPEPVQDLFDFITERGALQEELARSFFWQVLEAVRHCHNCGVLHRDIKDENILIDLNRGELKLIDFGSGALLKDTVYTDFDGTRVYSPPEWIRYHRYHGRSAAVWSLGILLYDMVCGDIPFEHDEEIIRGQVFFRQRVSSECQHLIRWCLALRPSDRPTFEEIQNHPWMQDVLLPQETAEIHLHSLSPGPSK
Serine/threonine-protein kinase PIM (Homo sapiens), sequence (Q9P1W9 whole entry, looked up): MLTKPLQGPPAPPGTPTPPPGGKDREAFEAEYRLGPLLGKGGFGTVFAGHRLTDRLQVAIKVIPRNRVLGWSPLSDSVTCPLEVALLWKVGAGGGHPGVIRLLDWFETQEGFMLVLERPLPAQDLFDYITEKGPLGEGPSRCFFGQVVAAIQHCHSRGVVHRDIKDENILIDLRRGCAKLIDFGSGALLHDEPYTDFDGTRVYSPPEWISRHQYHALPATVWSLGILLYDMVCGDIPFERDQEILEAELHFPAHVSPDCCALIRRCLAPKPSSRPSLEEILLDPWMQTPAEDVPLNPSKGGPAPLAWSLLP

[29] = molecular target: Dual specificity protein kinase CLK2 (Homo sapiens, UniProt P49760)
Description: Inhibition of human CLK2 assessed as remaining activity by eurofins-cerep kinase profiler analysis

Serine/threonine-protein kinase haspin, sequence (Q8TF76 whole entry): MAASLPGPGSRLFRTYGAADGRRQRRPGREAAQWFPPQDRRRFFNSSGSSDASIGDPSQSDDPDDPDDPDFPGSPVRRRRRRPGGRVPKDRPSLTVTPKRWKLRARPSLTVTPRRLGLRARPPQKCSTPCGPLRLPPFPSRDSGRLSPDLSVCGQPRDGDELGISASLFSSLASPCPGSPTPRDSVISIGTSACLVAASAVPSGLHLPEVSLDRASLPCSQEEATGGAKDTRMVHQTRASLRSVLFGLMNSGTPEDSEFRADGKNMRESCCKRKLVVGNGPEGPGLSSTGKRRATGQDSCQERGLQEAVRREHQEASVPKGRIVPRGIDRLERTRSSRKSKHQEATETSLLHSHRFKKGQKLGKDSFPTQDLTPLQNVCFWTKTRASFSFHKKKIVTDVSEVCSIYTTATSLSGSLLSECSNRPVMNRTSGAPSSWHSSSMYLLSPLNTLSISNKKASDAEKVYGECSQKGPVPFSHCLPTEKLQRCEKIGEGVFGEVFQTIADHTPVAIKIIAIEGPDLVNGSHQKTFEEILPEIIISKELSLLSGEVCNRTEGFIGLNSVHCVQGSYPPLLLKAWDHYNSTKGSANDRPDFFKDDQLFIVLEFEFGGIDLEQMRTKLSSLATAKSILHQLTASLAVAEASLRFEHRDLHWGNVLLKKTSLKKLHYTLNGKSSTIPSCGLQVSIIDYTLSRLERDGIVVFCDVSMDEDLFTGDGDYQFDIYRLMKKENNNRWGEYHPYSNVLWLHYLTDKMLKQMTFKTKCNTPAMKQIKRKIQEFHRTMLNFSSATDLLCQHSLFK

IC50 [1]: Not Active
IC50 [2]: > 10000 nM
IC50 (Myotonin-protein kinase): > 1000 nM
IC50 [3]: > 1000 nM
IC50 [4]: > 10000 nM
IC50 [5]: > 10000 nM
IC50 [6]: > 1000 nM
ΔTm [7]: 1.4 °C
IC50 (Tribbles homolog 2): > 1000 nM
ΔTm [8]: 0.3 °C
IC50 [9]: > 10000 nM
IC50 [10]: > 10000 nM
IC50 [11]: > 1000 nM
IC50 [13]: > 1000 nM
IC50 [14]: > 1000 nM
ΔTm [15]: 1.4 °C
IC50 [16]: > 10000 nM
IC50 [17]: > 10000 nM
IC50 [18]: > 1000 nM
IC50 [19]: > 10000 nM
IC50 [20]: > 10000 nM
ΔTm [21]: 1.4 °C
IC50 [22]: > 1000 nM
IC50 [23]: > 10000 nM
ΔTm [24]: 0.6 °C
IC50 [25]: > 1000 nM
ΔTm [26]: 1.1 °C
ΔTm [27]: 0.4 °C
ΔTm [28]: 4.5 °C
IC50 [29]: > 1000 nM
SMILES: COC[C@@H](CC(C)C)NC1=N/C(=C\c2ccc3scnc3c2)C(=O)N1
ΔTm [12]: 4.7 °C
